Measurements published in ChEMBL document CHEMBL1143820, “Mutations in 16S rRNA and ribosomal protein S5 associated with high-level spectinomycin resistance in Pasteurella multocida” (2007).
≈ marks a conversion by molar mass, not a printed value.

Tests used:
Type in all cases: functional
Pasteurella multocida [1] = experiment: Antibacterial activity against Pasteurella multocida isolate 2 with operon A,B,C,D,E,F 16S rRNA C1192G transversion mutation by CLSI M31-A2 method
Pasteurella multocida [2] = experiment: Antibacterial activity against Pasteurella multocida isolate 17 by CLSI M31-A2 method
Pasteurella multocida [3] = experiment: Antibacterial activity against Pasteurella multocida isolate 15 by CLSI M31-A2 method
Pasteurella multocida [4] = experiment: Antibacterial activity against Pasteurella multocida isolate 16 by CLSI M31-A2 method
Pasteurella multocida [5] = experiment: Antibacterial activity against Pasteurella multocida isolate 7 with operon A,B,C,D,E 16S rRNA C1192G transversion mutation by CLSI M31-A2 method
Pasteurella multocida [6] = experiment: Antibacterial activity against Pasteurella multocida isolate 3 with operon A,B,C,D,E,F 16S rRNA C1192G transversion mutation by CLSI M31-A2 method
Pasteurella multocida [7] = experiment: Antibacterial activity against Pasteurella multocida isolate 14 by CLSI M31-A2 method
Pasteurella multocida [8] = experiment: Antibacterial activity against Pasteurella multocida isolate 10 with operon B,C 16S rRNA C1192G transversion mutation and S5 protein 32-SF-33>32I mutation by CLSI M31-A2 method
Pasteurella multocida [9] = experiment: Antibacterial activity against Pasteurella multocida isolate 11 with operon B,C 16S rRNA C1192G transversion mutation and S5 protein 32-SF-33>32I mutation by CLSI M31-A2 method
Pasteurella multocida [10] = experiment: Antibacterial activity against Pasteurella multocida isolate 5 with operon A,B,C,D,E,F 16S rRNA C1192G transversion mutation by CLSI M31-A2 method
Pasteurella multocida [11] = experiment: Antibacterial activity against Pasteurella multocida isolate 4 with operon A,B,C,D,E,F 16S rRNA C1192G transversion mutation by CLSI M31-A2 method
Pasteurella multocida [12] = experiment: Antibacterial activity against Pasteurella multocida isolate 9 with operon B,C 16S rRNA C1192G transversion mutation and S5 protein 32-SF-33>32I mutation by CLSI M31-A2 method
Pasteurella multocida [13] = experiment: Antibacterial activity against Pasteurella multocida isolate 1 with operon A,B,C,D,E,F 16S rRNA C1192G transversion mutation by CLSI M31-A2 method
Pasteurella multocida [14] = experiment: Antibacterial activity against Pasteurella multocida isolate 8 with operon A,B,C,D,E 16S rRNA C1192G transversion mutation by CLSI M31-A2 method
Pasteurella multocida [15] = experiment: Antibacterial activity against Pasteurella multocida isolate 13 with loss of 23K in S5 protein by CLSI M31-A2 method
Pasteurella multocida [16] = experiment: Antibacterial activity against Pasteurella multocida isolate 6 with operon A,B,C,D,E 16S rRNA C1192G transversion mutation by CLSI M31-A2 method
Pasteurella multocida [17] = experiment: Antibacterial activity against Pasteurella multocida isolate 12 with operon B,C 16S rRNA C1192G transversion mutation and S5 protein 32-SF-33>32I mutation by CLSI M31-A2 method

For `CN[C@@H]1[C@H](O)[C@H](NC)[C@H]2O[C@@]3(O)C(=O)C[C@@H](C)O[C@H]3O[C@@H]2[C@H]1O` [SPECTINOMYCIN], which MIC (Pasteurella multocida [1]) is on record?
The MIC was greater than 8190 µg/mL.

And the MIC (Pasteurella multocida [2])?
Its MIC is 16 µg/mL (≈ 0.0481 mM).

What about the MIC (Pasteurella multocida [3]) of the same molecule?
The MIC was 16 µg/mL (≈ 0.0481 mM).

What about the MIC (Pasteurella multocida [4]) of the same molecule?
The MIC was 16 µg/mL (≈ 0.0481 mM).

And the MIC (Pasteurella multocida [5])?
The MIC was 8190 µg/mL (≈ 24.6 mM).

And the MIC (Pasteurella multocida [6])?
Its MIC is greater than 8190 µg/mL.

And the MIC (Pasteurella multocida [7])?
Its MIC is 16 µg/mL (≈ 0.0481 mM).

What about the MIC (Pasteurella multocida [8]) of the same molecule?
Its MIC is greater than 8190 µg/mL.

And the MIC (Pasteurella multocida [9])?
The MIC was greater than 8190 µg/mL.

What about the MIC (Pasteurella multocida [10]) of the same molecule?
The MIC was greater than 8190 µg/mL.

And the MIC (Pasteurella multocida [11])?
Its MIC is greater than 8190 µg/mL.

What about the MIC (Pasteurella multocida [12]) of the same molecule?
The MIC was 4100 µg/mL (≈ 12.3 mM).

And the MIC (Pasteurella multocida [13])?
Its MIC is greater than 8190 µg/mL.

What about the MIC (Pasteurella multocida [14]) of the same molecule?
Its MIC is 4100 µg/mL (≈ 12.3 mM).

And the MIC (Pasteurella multocida [15])?
The MIC was 4100 µg/mL (≈ 12.3 mM).

What about the MIC (Pasteurella multocida [16]) of the same molecule?
The MIC was 4100 µg/mL (≈ 12.3 mM).

And the MIC (Pasteurella multocida [17])?
Its MIC is greater than 8190 µg/mL.
